Assay results as given in ChEMBL document CHEMBL5728961, “Compounds useful for treating gastrointestinal tract disorders” (2022).

Columns and labels:
[1] = molecular target: T1, Sodium/hydrogen exchanger 3 (Homo sapiens, UniProt P48764); assay: Cell-Based Assay of NHE-3 Activity (Pre-Incubation Inhibition): Rat and human NHE-3-mediated Na+-dependent H+ antiport was measured using a modification of the pH sensitive dye method originally reported by Paradiso (Proc. Natl. Acad. Sci. USA. (1984) 81(23): 7436-7440). PS120 fibroblasts stably expressing human NHE3 and NHERF2 were obtained from Mark Donowitz (Baltimore, Md.). Opossum kidney (OK) cells were obtained from the ATCC and propagated per their instructions. The rat NHE-3 gene (GenBank M85300) was introduced into OK cells via electroporation, and cells were seeded into 96 well plates and grown overnight. Medium was aspirated from the wells then incubated for 30 min at 37° C. with NH4Cl-HEPES buffer (20 mM NH4Cl, 80 mM NaCl, 50 mM HEPES, 5 mM KCl, 2 mM CaCl2, 1 mM MgCl2, pH 7.4) containing 5 μM BCECF-AM. Cells were washed once with Ammonium free, Na+-free HEPES (100 mM choline, 50 mM HEPES, 10 mM glucose, 5 mM KCl, 2 mM CaCl2, 1 mM MgCl2, pH 7.4) and incubated in the same buffer for 10 minutes at room temperature to lower intracellular pH with 0-30 μM test compound. […] Changes in intracellular pH were monitored using a FLIPR Tetra® (Molecular Devices, Sunnyvale, Calif.) by excitation at λex 439 to 505 nm, and measuring BCECF fluorescence at λem 538 nm. The initial rate of the fluorescence ratio change was used as a measure of NHE-mediated Na+/H+ activity, and reported as the change in fluorescence ratio per minute.
T1 sequence (P48764 whole entry): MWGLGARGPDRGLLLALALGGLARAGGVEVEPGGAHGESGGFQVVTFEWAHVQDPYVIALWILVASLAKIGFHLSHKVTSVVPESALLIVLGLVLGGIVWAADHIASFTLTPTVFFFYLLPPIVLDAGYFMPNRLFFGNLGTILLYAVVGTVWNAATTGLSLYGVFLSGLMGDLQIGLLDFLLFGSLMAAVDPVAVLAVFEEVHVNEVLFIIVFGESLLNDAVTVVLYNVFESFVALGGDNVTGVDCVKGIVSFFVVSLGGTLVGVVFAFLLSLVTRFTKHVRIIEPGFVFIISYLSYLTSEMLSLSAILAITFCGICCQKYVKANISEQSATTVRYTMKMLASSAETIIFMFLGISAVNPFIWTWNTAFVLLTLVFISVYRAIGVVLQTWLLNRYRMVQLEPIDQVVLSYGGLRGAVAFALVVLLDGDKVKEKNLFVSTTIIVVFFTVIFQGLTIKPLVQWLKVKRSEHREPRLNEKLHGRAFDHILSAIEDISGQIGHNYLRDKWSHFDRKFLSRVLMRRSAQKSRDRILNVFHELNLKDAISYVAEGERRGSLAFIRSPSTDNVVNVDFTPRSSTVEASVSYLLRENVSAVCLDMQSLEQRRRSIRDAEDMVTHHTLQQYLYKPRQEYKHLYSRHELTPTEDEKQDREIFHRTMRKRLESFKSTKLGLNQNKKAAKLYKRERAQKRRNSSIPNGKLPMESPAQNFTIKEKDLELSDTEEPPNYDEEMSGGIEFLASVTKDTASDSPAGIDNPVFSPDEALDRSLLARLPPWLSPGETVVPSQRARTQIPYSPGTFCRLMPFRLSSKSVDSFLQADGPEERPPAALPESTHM

[2] = molecular target: T1, Sodium/hydrogen exchanger 3; assay: Cell-Based Assay of NHE-3 Activity (Persistent Inhibition): The ability of compounds to inhibit human and rat NHE-3-mediated Na+ dependent H+ antiport after application and washout was measured using a modification of the pH sensitive dye method described above. PS120 fibroblasts stably expressing human NHE3 and NHERF2 were obtained from Mark Donowitz (Baltimore, Md.). Opossum kidney (OK) cells were obtained from the ATCC and propagated per their instructions. The rat NHE-3 gene was introduced into OK cells via electroporation, and cells were seeded into 96 well plates and grown overnight. Medium was aspirated from the wells, cells were washed once with NaCl-HEPES buffer (100 mM NaCl, 50 mM HEPES, 10 mM glucose, 5 mM KCl, 2 mM CaCl2, 1 mM MgCl2, pH 7.4), then overlayed with NaCl-HEPES buffer containing 0-30 μM test compound. After a 60 min incubation at room temperature, the test drug containing buffer was aspirated from the cells. Following aspiration, cells were washed once with NaCl-HEPES buffer without drug, then incubated for 30 min at 37° C. with NH4Cl-HEPES buffer (20 mM NH4Cl, 80 mM NaCl, 50 mM HEPES, 5 mM KCl, 2 mM CaCl2, 1 mM MgCl2, pH 7.4) containing 5 μM BCECF-AM. Cells were washed once with Ammonium free, Na+-free HEPES (100 mM choline, 50 mM HEPES, 10 mM glucose, 5 mM KCl, 2 mM CaCl2, 1 mM MgCl2, pH 7.4) and incubated in the same buffer for 10 minutes at room temperature to lower intracellular pH. NHE-3-mediated recovery of neutral intracellular pH was initiated ([…]) by addition of Na-HEPES buffer. […] Changes in intracellular pH were monitored using a FLIPR Tetra® (Molecular Devices, Sunnyvale, Calif.) by excitation at λex 439 to 505 nm, and measuring BCECF fluorescence at λem 538 nm. The initial rate of the fluorescence ratio change was used as a measure of NHE-mediated Na+/H+ activity, and reported as the change in fluorescence ratio per minute.

| SMILES | IC50 [1] [µM] | IC50 [2] [µM] |
| --- | --- | --- |
| Cc1cc(S(=O)(=O)NCCCCCCCCNC(=O)NCCCCNC(=O)NCCCCCCCCNS(=O)(=O)c2ccc(O[C@H]3c4cc(Cl)cc(Cl)c4C[C@@H]3N(C)C)c(C)c2)ccc1O[C@H]1c2cc(Cl)cc(Cl)c2C[C@@H]1N(C)C | > 1 | > 1 |
| Cc1cc(S(=O)(=O)N[C@@H]2CCN(CCOCCNC(=O)NCCCCNC(=O)NCCOCCN3CC[C@@H](NS(=O)(=O)c4ccc(O[C@H]5c6cc(Cl)cc(C#N)c6C[C@@H]5N(C)C)c(C)c4)C3)C2)ccc1O[C@H]1c2cc(Cl)cc(C#N)c2C[C@@H]1N(C)C | < 0.1 | < 0.1 |
| Cc1cc(O[C@H]2c3cc(Cl)cc(Cl)c3C[C@@H]2N2CCC[C@@H](N)C2)c(F)cc1S(=O)(=O)NCCOCCOCCNC(=O)NCCCCNC(=O)NCCOCCOCCNS(=O)(=O)c1cc(F)c(O[C@H]2c3cc(Cl)cc(Cl)c3C[C@@H]2N2CCC[C@@H](N)C2)cc1C | < 0.1 | < 0.1 |
| N[C@@H]1CCCN([C@H]2Cc3c(Cl)cc(Cl)cc3[C@@H]2Oc2ccc(S(=O)(=O)NCCCCCCn3cc(CNC(=O)NCCCCNC(=O)NCc4cn(CCCCCCNS(=O)(=O)c5ccc(O[C@H]6c7cc(Cl)cc(Cl)c7C[C@@H]6N6CCC[C@@H](N)C6)cc5)nn4)nn3)cc2)C1 | < 0.1 | < 0.1 |
| Cc1cc(S(=O)(=O)NCCOCCOCCNC(=O)NCCCCNC(=O)NCCOCCOCCNS(=O)(=O)c2ccc(O[C@H]3c4cc(Cl)cc(C)c4C[C@@H]3N3CCC[C@@H](N)C3)c(C)c2)ccc1O[C@H]1c2cc(Cl)cc(C)c2C[C@@H]1N1CCC[C@@H](N)C1 | < 0.1 | < 0.1 |
| CN(C)[C@@H]1CCCN([C@H]2Cc3c(Cl)cc(Cl)cc3[C@@H]2Oc2ccc(S(=O)(=O)NCCOCCOCCNC(=O)NCCCCNC(=O)NCCOCCOCCNS(=O)(=O)c3ccc(O[C@H]4c5cc(Cl)cc(Cl)c5C[C@@H]4N4CCC[C@@H](N(C)C)C4)c(F)c3)cc2F)C1 | < 0.1 | < 0.1 |
| N[C@@H]1CCCN([C@H]2Cc3c(Cl)cc(Cl)cc3[C@@H]2Oc2ccc(S(=O)(=O)NCCOCCOCCNC(=O)NCCCCNC(=O)NCCOCCOCCNS(=O)(=O)c3ccc(O[C@H]4c5cc(Cl)cc(Cl)c5C[C@@H]4N4CCC[C@@H](N)C4)c(F)c3)cc2F)C1 | < 0.1 | < 0.1 |
| Cc1cc(Cl)cc2c1C[C@H](N1CCC[C@@H](N)C1)[C@H]2Oc1ccc(S(=O)(=O)NCCOCCOCCNC(=O)NCCCCNC(=O)NCCOCCOCCNS(=O)(=O)c2ccc(O[C@H]3c4cc(Cl)cc(C)c4C[C@@H]3N3CCC[C@@H](N)C3)c(F)c2)cc1F | < 0.1 | < 0.1 |
| O=C(NCCCCNC(=O)NCCOCCOCCNS(=O)(=O)c1ccc(O[C@H]2c3cc(Cl)cc(Cl)c3C[C@@H]2N2C3CCCC2CC3)cc1)NCCOCCOCCNS(=O)(=O)c1ccc(O[C@H]2c3cc(Cl)cc(Cl)c3C[C@@H]2N2C3CCCC2CC3)cc1 | < 0.1 | < 0.1 |
| CN(C)[C@H]1Cc2c(OC(F)(F)F)cc(Cl)cc2[C@@H]1Oc1ccc(S(=O)(=O)NCCOCCOCCNC(=O)NCCCCNC(=O)NCCOCCOCCNS(=O)(=O)c2ccc(O[C@H]3c4cc(Cl)cc(OC(F)(F)F)c4C[C@@H]3N(C)C)cc2)cc1 | > 1 | > 1 |
| Cc1cc(S(=O)(=O)N2CC[C@@H](COCCOCCNC(=O)NCCCCNC(=O)NCCOCCOC[C@@H]3CCN(S(=O)(=O)c4ccc(O[C@H]5c6cc(Cl)cc(C#N)c6C[C@@H]5N(C)C)c(C)c4)C3)C2)ccc1O[C@H]1c2cc(Cl)cc(C#N)c2C[C@@H]1N(C)C | < 0.1 | < 0.1 |
| Cc1cc(Cl)cc2c1C[C@H](N1CCNCC1)[C@H]2Oc1ccc(S(=O)(=O)NCCOCCOCCNC(=O)NCCCCNC(=O)NCCOCCOCCNS(=O)(=O)c2ccc(O[C@H]3c4cc(Cl)cc(C)c4C[C@@H]3N3CCNCC3)cc2)cc1 | < 0.1 | < 0.1 |
